One assay has as its system LPS-stimulated MoDC. Description: TLR4 stimulated pro-inflammatory cytokine release in primary human monocyte-derived dendritic cells. Type of assay: cell-based. The following applies: healthy human donors D14 and D15, dose response. An excerpt:
Monocyte derived DC (MoDC) were differentiated from healthy human donor derived CD14+ monocytes. Commercially available freshly prepared Leukopaks were obtained from healthy blood donor and kept refrigerated on ice before spin centrifuged and the pelleted cells are rinsed and resuspended with MACS buffer (Miltenyi Biotec). Next, CD14+ monocytes were purified using MultiMACS™ Cell24 Separator-Plus instrumentation and reagents according to the manufacturer (Miltenyi Biotec) instructions. The resulting purified CD14+ cell fraction was washed, enumerated, and subsequently cryopreserved for later use. At the experiment first day cryopreserved CD14+ cells were thawed, rinsed with culture media, and then resuspended in culture media principally composed of RPMI (Invitrogen) supplemented with 10% v/v heat inactivated FBS. For generation of MoDC, these CD14+ cells were enumerated and seeded into 75 cm^2 tissue culture flasks in 30 mL of culture media supplemented with GM-CSF (40-100 ng/ml) and IL-4 (25 ng/ml). Every other day, half of the culture media was replaced with fresh media (containing the same cytokine supplementation) and after 6-7 days of culture, fully differentiated and mature MoDC were obtained as confirmed by conventional Immuno-phenotype markers (levels of expression or absence of surface CD80, CD83, CD86, CD209, HLA-DR, CD14 & CD64) that were verified by flow-cytometry. Fully differentiated (mature) MoDCs, were seeded into 96 flat-well plates and incubated with various concentrations of the compounds described herein, or with control solution (DMSO), or with the pharmacologic inhibitors Cyclosporin-A (CsA) or BAY 61-3606 (which is a known inhibitor of Syk kinase) for 6 hours. Next, the cells were stimulated with Toll-like receptor agonists R848 (TLR7/8) or LPS (TLR4), and further incubated for 18-20 hours. After incubation concluded, culture supernatants were collected, and the levels of inflammatory cytokines and chemokines were measured in a triplicate setting for each condition by Luminex® multiplex assay.

The subject of assay [1] is R848-driven NFκB reporter (SEAP) in THP-1 cells. In words: TLR7/8 (R848) stimulated NFκB reporter gene assay in THP1-Dual cells. The format is cell-based. As to conditions: Homo sapiens, THP-1, 10 μM compound, 1 μM R848, THP1-Dual cells; read-out: R848-driven NFκB reporter gene assay (Percent inhibition at 10 μM). As for the experimental part: Compounds described herein are added to the human leukemic monocyte-like cell line THP-1 for bioactivity assessment. THP1-Dual cells (InvivoGen, San Diego, CA) feature the Lucia gene, a secreted luciferase reporter gene, under the control of an ISG54 minimal promoter in conjunction with five IFN-stimulated response elements. THP1-Dual cells also express a secreted embryonic alkaline phosphatase (SEAP) reporter gene driven by an IFN-β minimal promoter fused to five copies of the NF-κB consensus transcriptional response element and three copies of the c-Rel binding site. As a result, THP1-Dual cells allow the simultaneous study of the NF-κB pathway, by monitoring the activity of SEAP, and the IRF pathway, by assessing the activity of Lucia luciferase.
THP-1 dual reporter cells were grown in RPMI 1640 culture medium with 2 mM L-glutamine, 25 mM HEPES, 10% heat-inactivated fetal bovine serum, 100 μg/ml Normocin antibiotic (InvivoGen), Pen-Strep antibiotic (100 U/ml-100 μg/ml, InvivoGen). On the day of the assay, cells were seeded in a 384 flat-bottom well plate at 25,000 cells/well and incubated for 2 hours. Cells were then incubated with 10 μM of the compounds described herein or with 1 μM of IKK-16 (Selleck), a potent inhibitor of IκB kinases (IKKs) or with DMSO (vehicle control) for 2 hours, followed by the addition of the synthetic TLR7/8 agonist R848 at 1 μM and incubation for 16 hours. After incubation was concluded, the cultures supernatants were collected and IRF related activity was assessed by measurement of the Lucia luciferase, using Quanti-Luc assay (InvivoGen). NF-κB pathway activity was assessed by quantifying SEAP using Quanti-Blue assay (InvivoGen).

On to `CN1[C@@H](C(=O)O)CC[C@H]1[C@@H]1CSC(c2ccccc2O)=N1` [Compound I-4, (2R,5S)-5-((R)-2-(2-hydroxyphenyl)-4,5-dihydrothiazol-4-yl)-1-methylpyrrolidine-2-carboxylic acid], for which, in the assay on LPS-stimulated MoDC, the IL-6 level entry is “statistically significant decrease”, the IL-12p70 level result is recorded as “statistically significant decrease”, the IL-23 level entry is recorded as “statistically significant decrease” and the TNFα level result is “statistically significant decrease”. Further, the inhibition at 10 µM in assay [1] was ≥ 50%.

Values taken from US20260193242A1, “USEFUL COMPOUNDS FOR MODULATING INFLAMMATION” (FLAGSHIP PIONEERING INNOVATIONS VI, LLC, priority 2022, published 2026).
